Measurements as given in patent US20210177796A1, “COMPOSITION FOR PREVENTING OR TREATING INFLAMMATORY DISEASES, CONTAINING MARINE FUNGUS PENICILLIUM SP. SF-5859-DERIVED CURVULARIN-TYPE METABOLITES” (KOREA INSITITUTE OF OCEAN SCIENCE AND TECHNOLOGY, priority 2017, published 2021).
Like-named read-outs stand apart in the source and are kept apart here.

Experiments:
Format in all cases: cell-based
[1] = test system: NO production in LPS-treated RAW 264.7 macrophages; experiment: Inhibition of NO (nitrite) production in LPS-treated RAW264.7 macrophages, Griess reaction; conditions: RAW 264.7 macrophages pre-treated 3 hours, then LPS (1 μg/mL) 24 hours
Protocol: As an indicator of NO production in RAW264.7 macrophages, production of nitrite, which is a stable end-product of NO oxidation, was evaluated. The concentration of nitrite in conditioned media was determined based on the Griess reaction.
(§1) In the present example, RAW264.7 macrophages were pre-treated for 3 hours in the medium containing non-toxic concentrations (Table 1) of each compound (Formula 1 to 4), and then LPS (1 μg/mL) was treated for 24 hours. According to the LPS stimulation of RAW264.7 macrophages, the production of NO and PGE2 was increased, and the effects of all compounds on the production levels of NO and PGE2 were evaluated by the Griess reaction and a PGE2 kit, respectively.

[2] = test system: PGE2 production in LPS-treated RAW 264.7 macrophages; experiment: Inhibition of PGE2 production in LPS-treated RAW264.7 macrophages, PGE2 ELISA kit; conditions: RAW 264.7 macrophages pre-treated 3 hours, then LPS (1 μg/mL) 24 hours
From the text: RPMI1640, fetal bovine serum (FBS), and other tissue culture reagents were purchased from Gibco BRL Co. (Grand Island, N.Y., USA). All other chemicals were obtained from Sigma-Aldrich Co. (St. Louis, Mo., USA). Primary antibodies (COX-2: sc-1745; iNOS: sc-650; IκB-α: sc-371; p-IκB-α: sc-8404; p50: sc-7178; p65: sc-8008, Santa Cruz Biotechnology, Dallas, Tex., USA, p-ERK: #9101; ERK: #9102; p-JNK: #9251; JNK: #9252S; p-p38: #9211; p38: 9212S, Cell Signaling Technology, Danvers, Mass., USA) and secondary antibodies (mouse: ap124p; goat: ap106p; rabbit: ap132p, Millipore, Billerica Mass., USA) were used. Enzyme-linked immunosorbent assay (ELISA) kits for PGE2 were purchased from R and D Systems, Inc. (Minneapolis, Minn., USA).
as §1

[3] = test system: RAW264.7 macrophages; experiment: Cytotoxicity by MTT assay
Protocol: In the present example, the cytotoxicity of each of the compounds of Formula 1 to 4 was confirmed in RAW264.7 macrophages by MTT assay.
RAW264.7 macrophages were maintained at a density of 5×10^5 cells/mL in RPMI1640 medium supplemented with 10% heat-inactivated FBS, penicillin G (100 units/mL), streptomycin ([…]), and L-glutamine (2 mM), and were incubated at 37° C. in a humidified atmosphere containing 5% CO2. To determine cell viability, cells (1×10^5 cells/well in 96-well plates) were incubated with 3-(4,5-dimethylthiazol-2-yl)-2,5-diphenyltetrazolium bromide (MTT) at a final concentration of 0.5 mg/mL for 3 hours, and the formazan formed was dissolved in acidic 2-propanol. The optical density was measured at 540 nm with a microplate reader (BioRad, Hercules, Calif., USA). The optical density of the formazan formed in control (untreated) cells was considered to represent 100% viability.

[4] = test system: iNOS; experiment: iNOS protein expression in LPS-stimulated RAW264.7 macrophages; conditions: pre-treated 3 hours, LPS 24 hours; FIG. 1(a)
Protocol: (§2) Therefore, the inventors of the present invention further tested whether the inhibitory effects of the compound of Formula 3 against NO and PGE2 productions are correlated with the protein expression of pro-inflammatory enzymes (e.g., iNOS or COX-2, respectively), which are known to catalyze the production of NO and PGEs in LPS-stimulated cells. RAW264.7 macrophages were pre-treated with the indicated concentrations of the compound of Formula 3 for 3 hours, and then stimulated with LPS for 24 hours. The presence of the compound of Formula 3 led to the attenuation of the excessive protein expression of iNOS and COX-2 in a dose-dependent manner (see FIG. 1(a)).

[5] = test system: COX-2; experiment: COX-2 protein expression in LPS-stimulated RAW264.7 macrophages; conditions: pre-treated 3 hours, LPS 24 hours; FIG. 1(a)
Protocol: as §2

[6] = test system: IL-1β; experiment: IL-1β mRNA expression in LPS-induced cells, RT-qPCR; conditions: pre-treated 3 hours, LPS (1 μg/mL) 6 hours; FIG. 1(b)
Protocol: (§3) In addition, upon stimulation by LPS, macrophages can trigger the production of pro-inflammatory cytokines such as TNF-α and ILs. The overproduction of these cytokines contributes to the pathogenesis of inflammatory diseases. Thus, the inventors of the present invention further evaluated the effects of the compound of Formula 3 on the mRNA expression of pro-inflammatory cytokines in the LPS-induced cells. The cells were pre-treated with indicated concentration for 3 hours, followed by LPS stimulation (1 μg/mL) for 6 hours. The mRNA expression of pro-inflammatory cytokines was determined by RT-qPCR.

[7] = test system: IL-6; experiment: IL-6 mRNA expression in LPS-induced cells, RT-qPCR; conditions: pre-treated 3 hours, LPS (1 μg/mL) 6 hours; FIG. 1(c)
Protocol: as §3

[8] = test system: TNF-α; experiment: TNF-α mRNA expression in LPS-induced cells, RT-qPCR; conditions: pre-treated 3 hours, LPS (1 μg/mL) 6 hours; FIG. 1(d)
Protocol: as §3

[9] = test system: NF-κB (p50 and p65); experiment: NF-κB activation: nuclear translocation of p50 and p65 in LPS-induced RAW264.7 macrophages; conditions: FIG. 2(a)
[10] = test system: IκB-α; experiment: IκB-α phosphorylation and degradation in LPS-induced RAW264.7 macrophages; conditions: FIG. 2(b)
Protocol: (§4) In the present example, a NF-κB ELISA kit (Active Motif) was used to test the nuclear extracts and determine the degree of NF-κB binding. […] Furthermore, when the cells were treated with LPS alone, the phosphorylation level of IκB-α was increased, whereas the compound of Formula 3 attenuated this phosphorylation of IκB-α. In addition, the compound of Formula 3 blocked the degradation of IκB-α in a concentration-dependent manner (see FIG. 2(b)). In line with these, LPS-induced DNA binding activity of NF-κB was declined in the nuclear extracts of the cells co-treated with the compound of Formula 3 (see FIG. 2(c)).

[11] = test system: NF-κB; experiment: DNA binding activity of NF-κB in nuclear extracts, NF-κB ELISA kit; conditions: FIG. 2(c)
Protocol: as §4

[12] = test system: p38; experiment: LPS-induced p38 phosphorylation in RAW264.7 macrophages; conditions: LPS 30 minutes; FIG. 3(a)
From the text: (§5) Mitogen-activated protein kinase (MAPK) pathways are known to be involved in the expression of pro-inflammatory cytokines in macrophages. Thus, the effect of the compound of Formula 3 on the LPS-induced phosphorylation of MAPK was examined.

[13] = test system: c-Jun N-terminal kinase (JNK); experiment: LPS-induced JNK phosphorylation in RAW264.7 macrophages; conditions: LPS 30 minutes; FIG. 3(b)
From the text: as §5

[14] = test system: extracellular signal-regulated kinase (ERK); experiment: LPS-induced ERK phosphorylation in RAW264.7 macrophages; conditions: LPS 30 minutes; FIG. 3(c)
From the text: as §5

Molecule	IC50 [1] [µM]	IC50 [2] [µM]	Cytotoxicity (μM): the maximum concentration not affecting cell viability ([3]; RAW264.7 macrophages, MTT) [µM]	other results
5,7-Di-O-acetylcurvularin [Formula 1e]	77.5 ± 9.3	> 80		Cytotoxicity (μM): the maximum concentration not affecting cell viability [3]: >80 µM
5,7-Di-O-methylcurvularin [Formula 1c]	60.6 ± 16.4	49.4 ± 14		Cytotoxicity (μM): the maximum concentration not affecting cell viability [3]: >80 µM
CC1CCCCCC(=O)c2c(O)cc(O)cc2CC(=O)O1 (stereo not drawn) [Formula 1a, curvularin]	18.1 ± 5.2	18.7 ± 4.9	40	
COc1cc(O)c2c(c1)CC(=O)O[C@@H](C)CCCCCC2=O [Formula 1b, 5-O-methylcurvularin]	> 80	40.2 ± 5.1	>80	
CC(=O)Oc1cc(O)c2c(c1)CC(=O)O[C@@H](C)CCCCCC2=O [Formula 1d, 5-O-acetylcurvularin]	46.9 ± 3.7	73.7 ± 17.1		Cytotoxicity (μM): the maximum concentration not affecting cell viability [3]: >80 µM
C[C@H]1CCC[C@@H](O)CC(=O)c2c(O)cc(O)cc2CC(=O)O1 [Formula 2a, (11R,15S)-11-hydroxycurvularin]	11.5 ± 2.7	15.6 ± 5.2	40	
C[C@H]1CCC[C@H](O)C(=O)c2c(O)cc(O)cc2CC(=O)O1 [Formula 2b, (11S,15S)-11-hydroxycurvularin]	7.2 ± 1.6	14.1 ± 4	40	
CO[C@@H]1CCC[C@H](C)OC(=O)Cc2cc(O)cc(O)c2C(=O)C1 [Formula 2c, (11R,15S)-11-methoxycurvularin]	2.6 ± 0.4	3 ± 1.3	20	
CO[C@H]1CCC[C@H](C)OC(=O)Cc2cc(O)cc(O)c2C1=O [Formula 2d, (11S,15S)-11-methoxycurvularin]	3.5 ± 0.5	6 ± 1.9	20	
C[C@H]1CCC/C=C/C(=O)c2c(O)cc(O)cc2CC(=O)O1 [Formula 3, (10E,15S)-10,11-dehydrocurvularin]			20	IC50 ([1]; Mus musculus, RAW264.7): 1.9 ± 0.3 µM; IC50 ([2]; Mus musculus, RAW264.7): 2.7 ± 0.4 µM; Protein expression of iNOS [4]: attenuation; Protein expression of COX-2 [5]: attenuation; mRNA expression of IL-1β [6]: significantly suppressed; mRNA expression of IL-6 [7]: significantly suppressed; mRNA expression of TNF-α [8]: significantly suppressed; Nuclear translocation of p50 and p65 [9]: dose-dependently suppressed; Degradation of IκB-α [10]: blocked; Phosphorylation of IκB-α [10]: attenuated; LPS-induced DNA binding activity of NF-κB [11]: declined; Phosphorylation of p38 [12]: did not suppress; Phosphorylation of JNK [13]: did not suppress; Phosphorylation of ERK [14]: did not suppress
C[C@H]1CCC/C=C\C(=O)c2c(O)cc(O)cc2CC(=O)O1 [Formula 4, (10Z,15S)-10,11-dehydrocurvularin]			20	IC50 ([1]; Mus musculus, RAW264.7): 4.4 ± 0.8 µM; IC50 ([2]; Mus musculus, RAW264.7): 6.2 ± 1.1 µM
